Laboratory results published in DBAASP.
≈ marks a conversion by molar mass, not a printed value. Where “and” joins values, the source holds several entries; their conditions need not be identical. Equal entries are not always repeated.

Assays:
Assay in all cases: ≥ marks a high value that may be exact or a test limit, other limits are often not marked, values filed in µg/mL are converted to µM
[1] = tested on: Staphylococcus aureus NCTC 8325
[2] = tested on: Candida albicans ATCC 90028
[3] = tested on: Escherichia coli ATCC 11775
[4] = tested on: Staphylococcus aureus ATCC 25923
[5] = tested on: Staphylococcus aureus NCTC 10788
[6] = tested on: Staphylococcus aureus ATCC 12600
[7] = tested on: Staphylococcus aureus ATCC 12493
[8] = tested on: Escherichia coli NCTC 10418
[9] = tested on: Candida albicans NCPF 1467
[10] = tested on: Escherichia coli ATCC 25922
Escherichia coli W160-37 = tested on: Escherichia coli W160-37
Staphylococcus aureus = tested on: Staphylococcus aureus
Pseudomonas aeruginosa = tested on: Pseudomonas aeruginosa
[11] = tested on: Pseudomonas aeruginosa ATCC 27853
[12] = tested on: Staphylococcus aureus ATCC 33591
[13] = tested on: Staphylococcus epidermidis ATCC 35984
Vibrio cholerae = tested on: Vibrio cholerae
[14] = tested on: Bacillus subtilis MTCC 14416
Escherichia coli MG1655 = tested on: Escherichia coli MG1655
[15] = tested on: Staphylococcus aureus MTCC 9542
[16] = tested on: Candida albicans ATCC 10231
Botrytis cinerea = tested on: Botrytis cinerea
Bacillus subtilis = tested on: Bacillus subtilis
[17] = tested on: Pectobacterium carotovorum
[18] = tested on: Staphylococcus aureus ATCC 43300
[19] = tested on: Enterococcus faecalis ATCC 29212
[20] = tested on: Escherichia coli IFO 12734
[21] = tested on: Bacillus subtilis IFO 3513
[22] = tested on: Staphylococcus aureus IFO 12732
[23] = tested on: Bacillus subtilis NBRC 3513
[24] = tested on: Staphylococcus aureus NBRC 12732
[25] = tested on: Staphylococcus epidermidis NBRC 12933
[26] = tested on: Bacillus megaterium ATCC 19213
[27] = tested on: Candida albicans ATCC 64550
[28] = tested on: Pseudomonas aeruginosa PAO1

CC[C@H](C)[C@@H]1NC(=O)[C@H](CC(C)C)NC(=O)[C@@H](NC(=O)[C@H](Cc2ccccc2)NC(=O)[C@H](CC(C)C)NC(=O)[C@H](CCCCN)NC(=O)[C@@H]2CCCN2C(=O)[C@H](CC(C)C)NC(=O)[C@H](C)NC(=O)[C@H](C)NC(=O)[C@H](CC(C)C)NC(=O)[C@H](C)NC(=O)[C@H](CC(C)C)NC(=O)[C@H](CO)NC(=O)[C@H](CC(C)C)NC(=O)[C@@H](N)Cc2ccccc2)CSSC[C@@H](C(=O)O)NC(=O)[C@H](CCCCN)NC(=O)[C@H](CCCCN)NC(=O)[C@H](Cc2ccccc2)NC1=O [FLSLALAALPKLFCLIFKKC] was tested, and the MIC [1] was 13 µM (≈ 29.1 µg/mL), the MIC [2] was ≥ 100 µM and the MIC [3] was 25 µM (≈ 55.9 µg/mL). For the same compound, the MIC [4] was > 60 µM, the MIC [5] was ≥ 32 µM and the MIC [6] was 12.5 µM (≈ 28 µg/mL). For the same compound, the MIC [7] was ≥ 32 µM, the MIC [8] was ≥ 512 µM and the MIC [9] was ≥ 32 µM. For the same compound, the MIC [10] was > 60 µM and 100 µM.
Work on CC[C@H](C)[C@H](NC(=O)CN)C(=O)N[C@@H](Cc1c[nH]c2ccccc12)C(=O)N[C@@H](CCCCN)C(=O)N[C@@H](CO)C(=O)N[C@@H](CC(C)C)C(=O)N[C@@H](Cc1ccccc1)C(=O)N[C@H](C(=O)N[C@@H](CCCCN)C(=O)N[C@@H](CC(C)C)C(=O)N[C@@H](CC(C)C)C(=O)N[C@@H](CCCCN)C(=O)NCC(N)=O)[C@@H](C)O [GIWKSLFTKLLKG] yielded an MIC (Escherichia coli W160-37) of 3.35 µM (≈ 5 µg/mL), an MIC (Staphylococcus aureus) of 6.71 µM (≈ 9.99 µg/mL) and an MIC (Pseudomonas aeruginosa) of 10.1 µM (≈ 15 µg/mL).
In the case of CC(C)C[C@H](NC(=O)[C@H](Cc1ccccc1)NC(=O)[C@H](CCCCN)NC(=O)CN)C(=O)N[C@@H](CCCCN)C(=O)N[C@@H](CCCCN)C(=O)N[C@@H](C)C(=O)N[C@@H](CCCCN)C(=O)N[C@@H](CCCCN)C(=O)N[C@@H](Cc1ccccc1)C(=O)NCC(=O)N[C@@H](CCCCN)C(N)=O [GKFLKKAKKFGK], the MIC [4] is reported as > 371 µM, the MIC [11] is reported as > 371 µM and the MIC [12] is reported as ≥ 371 µM. The MIC [13] was ≥ 262 µM.
For CC[C@H](C)[C@@H]1NC(=O)[C@H](CCCCN)NC(=O)[C@@H](NC(=O)[C@H](CC(C)C)NC(=O)[C@@H](NC(=O)[C@H](CCC(N)=O)NC(=O)[C@@H]2CCCN2C(=O)[C@H](CC(C)C)NC(=O)[C@H](Cc2ccccc2)NC(=O)[C@H](CC(N)=O)NC(=O)[C@H](C)NC(=O)[C@H](C)NC(=O)[C@H](CC(C)C)NC(=O)CN)[C@@H](C)CC)CSSC[C@@H](C(N)=O)NC(=O)[C@H](CCCCN)NC(=O)[C@H](CCCN=C(N)N)NC(=O)[C@H](C)NC1=O [GLAANFLPQILCKIARKC], the MIC (Vibrio cholerae) was 25.5 µM (≈ 49.9 µg/mL), the MIC [14] was ≥ 51 µM and the MIC [11] was > 51 µM. For the same compound, the MIC (Escherichia coli MG1655) was ≥ 51 µM and the MIC [15] was 25.5 µM (≈ 49.9 µg/mL).
Compound CC[C@H](C)[C@H](N)C(=O)N[C@@H](CC(N)=O)C(=O)N[C@@H](CC(C)C)C(=O)N[C@@H](CCCCN)C(=O)NCC(=O)N[C@@H](CC(C)C)C(=O)N[C@H](C(=O)N[C@@H](CCCCN)C(=O)N[C@@H](CCCCN)C(=O)N[C@H](C(=O)N[C@@H](C)C(=O)N[C@@H](CO)C(=O)N[C@@H](CC(C)C)C(=O)N[C@@H](CC(C)C)C(=O)N[C@H](C(=O)O)[C@@H](C)O)C(C)C)[C@@H](C)CC [INLKGLIKKVASLLT] has an MIC [16] of 100 µM (≈ 161 µg/mL), an MIC [3] of 25 µM (≈ 40.3 µg/mL) and an MIC (Botrytis cinerea) of 5 µM (≈ 8.06 µg/mL). For the same compound, the MIC [6] was ≥ 100 µM.
In the case of CC[C@H](C)[C@H](NC(=O)[C@H](CO)NC(=O)[C@H](CCCN=C(N)N)NC(=O)CNC(=O)[C@H](CCC(=O)O)NC(=O)[C@H](CC(C)C)NC(=O)[C@H](CCC(=O)O)NC(=O)[C@H](CC(C)C)NC(=O)[C@H](CO)NC(=O)[C@H](CC(=O)O)NC(=O)[C@H](Cc1ccc(O)cc1)NC(=O)[C@H](CCCN=C(N)N)NC(=O)[C@H](Cc1ccc(O)cc1)NC(=O)CNC(=O)[C@H](Cc1ccccc1)NC(=O)[C@@H](N)CCCCN)C(=O)N[C@@H](CO)C(=O)N[C@@H](CCCN=C(N)N)C(=O)N[C@H](C(=O)N[C@@H](CC(=O)O)C(=O)N[C@@H](CCC(=O)O)C(=O)N[C@@H](CC(C)C)C(=O)N[C@H](C(=O)N[C@@H](CCC(N)=O)C(=O)N[C@@H](CCC(N)=O)C(=O)N[C@@H](CCCN=C(N)N)C(=O)O)[C@@H](C)CC)[C@@H](C)CC [KFGYRYDSLELEGRSISRIDELIQQR], the MIC (Bacillus subtilis) is reported as 2.45 µM (≈ 7.77 µg/mL) and the MIC [17] is reported as 0.632 µM (≈ 2.01 µg/mL).
With CC(C)C[C@H](NC(=O)[C@H](Cc1ccccc1)NC(=O)[C@@H](N)CCCCN)C(=O)N[C@@H](CCCCN)C(=O)N[C@@H](CCCCN)C(=O)N[C@@H](C)C(=O)N[C@@H](CCCCN)C(=O)N[C@@H](CCCCN)C(=O)N[C@@H](Cc1ccccc1)C(=O)NCC(=O)N[C@@H](CCCCN)C(=O)N[C@@H](C)C(N)=O [KFLKKAKKFGKA] the MIC [4] was > 367 µM, the MIC [11] was 367 µM (≈ 512 µg/mL) and the MIC [12] was ≥ 367 µM. For the same compound, the MIC [13] was ≥ 367 µM.
In the case of CC[C@H](C)[C@H](NC(=O)[C@H](CCCCN)NC(=O)[C@H](CS)NC(=O)[C@H](CC(C)C)NC(=O)[C@@H](NC(=O)[C@H](CCC(N)=O)NC(=O)[C@@H]1CCCN1C(=O)[C@H](CC(C)C)NC(=O)[C@H](Cc1ccccc1)NC(=O)[C@H](CC(N)=O)NC(=O)[C@H](C)NC(=O)[C@H](C)NC(=O)[C@H](CC(C)C)NC(=O)CNC(=O)[C@H](C)NC(=O)[C@@H](NC(=O)[C@@H](N)CC(C)C)[C@@H](C)CC)[C@@H](C)CC)C(=O)N[C@@H](C)C(=O)N[C@@H](CCCN=C(N)N)C(=O)N[C@@H](CCCCN)C(=O)N[C@@H](CS)C(N)=O [LIAGLAANFLPQILCKIARKC], the MIC [18] is reported as > 44.3 µM, the MIC (Vibrio cholerae) is reported as 11.1 µM (≈ 25 µg/mL) and the MIC [14] is reported as 22.2 µM (≈ 50 µg/mL). For the same compound, the MIC [11] was > 44.3 µM, the MIC [19] was 44.3 µM (≈ 100 µg/mL) and the MIC (Escherichia coli MG1655) was 11.1 µM (≈ 25 µg/mL). The MIC [15] was ≥ 44.3 µM.
CC[C@H](C)[C@H](NC(=O)[C@H](CC(C)C)NC(=O)[C@@H]1CCCN1C(=O)[C@H](Cc1c[nH]c2ccccc12)NC(=O)[C@H](CCCCN)NC(=O)[C@H](Cc1c[nH]c2ccccc12)NC(=O)[C@@H]1CCCN1C(=O)[C@H](CC(C)C)NC(=O)[C@H](CC(C)C)NC(=O)[C@@H]1CCCN1C(=O)[C@H](Cc1c[nH]c2ccccc12)NC(=O)[C@H](CCCN=C(N)N)NC(=O)[C@@H](N)CCCN=C(N)N)C(N)=O [RRWPLLPWKWPLI] gave an MIC [20] of 14.2 µM (≈ 25 µg/mL), an MIC [21] of 3.55 µM (≈ 6.25 µg/mL) and an MIC [22] of 3.55 µM (≈ 6.25 µg/mL).
With CC(C)C[C@H](NC(=O)[C@H](CCCCN)NC(=O)[C@H](CC(C)C)NC(=O)[C@H](CC(C)C)NC(=O)[C@H](Cc1c[nH]c2ccccc12)NC(=O)[C@@H](N)CCCN=C(N)N)C(=O)NCC(=O)N[C@@H](Cc1cnc[nH]1)C(=O)N[C@@H](Cc1cnc[nH]1)C(=O)NCC(=O)N[C@@H](CCCN=C(N)N)C(=O)O [RWLLKLGHHGR] the MIC [23] was ≥ 64 µM, the MIC [24] was ≥ 64 µM and the MIC [25] was ≥ 128 µM. For the same compound, the MIC [26] was ≥ 32 µM.
CC(C)[C@H](NC(=O)[C@H](CCCN=C(N)N)NC(=O)[C@@H](NC(=O)[C@H](CCCN=C(N)N)NC(=O)[C@H](Cc1c[nH]c2ccccc12)NC(=O)[C@H](CCCN=C(N)N)NC(=O)[C@@H](N)Cc1c[nH]c2ccccc12)C(C)C)C(=O)N[C@@H](Cc1c[nH]c2ccccc12)C(=O)N[C@@H](CCCN=C(N)N)C(N)=O [WRWRVRVWR] was tested, and the MIC [27] was ≥ 100 µM and the MIC [28] was 1.79 µM (≈ 2.5 µg/mL).
